Source: patent US20110071198A1 (priority 2008, published 2011)
Like-named read-outs stand apart in the source and are kept apart here.

Columns and labels:
[1] = literature; cited from earlier work
cPLA2 = type: cell-based; conditions: pretreatment of cells
Protocol: Agonist-stimulated activation of cPLA2 in the presence of control siRNA, β-arrestin1 siRNA, or control siRNA plus either pertussis toxin or PD98059 (PD). […] (FIG. 6D) Activation or phosphorylation of cPLA2 in siRNA-treated cells. **P=0.0085 versus respective 10-minute value; ***P=0.0047 versus respective 0-minute value. Data are mean±SEM of 3 independent experiments.
Immunoblotting and immunoprecipitation. […] For immunoprecipitation, cells were treated with serum-free media with and without nicotinic acid. Cells were washed once with PBS at 4° C., harvested by gentle scraping, pelleted, and resuspended in glycerol lysis buffer including protease and phosphatase inhibitors. […] Immunoprecipitation reactions were incubated at 4° C. for 3 hours, washed 3 times with glycerol lysis buffer, and resuspended in SDS running buffer. Samples were subjected to SDS-PAGE analysis and Western blotting with cPLA2 antibody (diluted 1:1,000; Cell Signaling Technology), phosphorylated cPLA2 antibody (diluted 1:1,000; Cell Signaling Technology), M2 antibody (diluted 1:2,000; Sigma-Aldrich), and β-arrestin antibody (diluted 1:1,000; BD Biosciences).

[2] = nicotinic acid therapy; cited from earlier work
[3] = set-up: species or system mice; conditions: mouse, in vivo
Protocol: FIG. 10. […]. Perfusion of the ventral ear in age and weight matched wild-type C57B1/6 mice was measured with laser doppler. […] The first dose was 25 mg/kg, the second dose was 50 mg/kg and the third dose was 100 mg/kg. Wild-type (rechallenge) mice received all three doses of nicotinic acid and wild-type (control) mice received the first dose of nicotinic acid followed by two subsequent doses with vehicle alone. Plotted values represent the mean change in perfusion as a function of time from 8 animals.

[4] = i.p. 10, 50 or 100 mg/kg; wild-type C57BL/6, β-arrestin1-deficient and β-arrestin2-deficient mice
Protocol: (§1) FIG. 7. […] Animal use and protocols. All animal studies were reviewed and approved by the Duke University Internal Animal Care and Use Committee. […] Age- and weight-matched male mice over 12 weeks of age were used in all experiments. […] The animals were euthanized 30 minutes later. Serum was collected and stored at −80° C. […] After 10 minutes, the mice were placed under an LDPI laser Doppler (PeriScan PIM II; Perimed). The right ear was everted to expose the anterior/ventral surface. The laser Doppler was focused on the central portion of the ventral ear. Data were collected using the repeated data collection mode with a 5-mm×5-mm image size, a 10-second delay, and high-resolution scan. […] Readings were continually recorded for 30 minutes. As a control, each animal was subsequently treated with 4 mg/kg PGD2 dissolved in PBS.

Langerhans cells = conditions: 10 μM for 10 minutes
Protocol: Data are mean±SEM of 3 independent experiments.
The plates were transferred on ice, and cells were washed twice with ice-cold PBS and then scraped in PBS containing complete protease inhibitor cocktail (Roche Applied Sciences). Cells were lysed by brief sonication and then centrifuged at 3,000 g for 5 minutes to remove unbroken cells and nuclear fractions. Subsequently, the supernatant was centrifuged at 21,000 g for 30 minutes to separate the membrane fraction (in the pellet) and cytosolic fraction (in the supernatant). The membrane pellet was resuspended in PBS, proteins in the membrane and the cytosolic fractions were measured by Bradford assay, and β-arrestins were detected by Western blot analysis.

peritoneal macrophages = conditions: 200 μM, 10 minutes
Protocol: as §1, with “FIGS. 8A-8E. […] Data are mean±SEM for change in perfusion as a function of time. […] (FIG. 8D) Maximum response to PGD2, plotted as mean±SEM (n=15−25 per condition). […] Thioglycollate-elicited peritoneal macrophages were loaded with H3-arachidonic acid (H3-AA) for 24 hours, and then rinsed to remove arachidonic acid not incorporated into cell membrane lipids.” for “FIG. 7.”

[5] = system: differentiated THP-1 macrophages; conditions: 200 μM for 10 minutes; data not shown
[6] = Mouse cutaneous flushing assay (laser Doppler perfusion of ventral ear); type: in vivo, mice; conditions: i.p. 100 mg/kg
Protocol: FIGS. 8A-8E. […] Animal use and protocols. […] The animals were euthanized 30 minutes later. Serum was collected and stored at −80° C. […] Readings were continually recorded for 30 minutes.

GPR109A [7] = molecular target: T1, GPR109A (Homo sapiens, UniProt Q8TDS4); assay: ICUE cAMP assay in HEK-293 cells expressing FLAG-GPR109A and ICUE2 biosensor; type: cell-based
T1 construct: expressed in transfected cells; plus Zeocin with ICUE2
Protocol: ICUE cAMP assay. […] Experiments were performed on a NOVOstar plate reader (BMG Labtech).

GPR109A [8] = molecular target: T1, GPR109A; assay: Phosphorylated ERK immunoblotting in HEK-293 cells; type: cell-based; conditions: GPR109A-expressing cells
Protocol: Total ERK1/2 was detected with anti-MAPK1/2 (diluted 1:3,000; Upstate Biotechnology). […] Anti-rabbit and anti-mouse secondary antibodies for Western blots were obtained from Amersham Biosciences. For immunoprecipitation, cells were treated with serum-free media with and without nicotinic acid. Cells were washed once with PBS at 4° C., harvested by gentle scraping, pelleted, and resuspended in glycerol lysis buffer including protease and phosphatase inhibitors. […] Immunoprecipitation reactions were incubated at 4° C. for 3 hours, washed 3 times with glycerol lysis buffer, and resuspended in SDS running buffer. Samples were subjected to SDS-PAGE analysis and Western blotting with cPLA2 antibody (diluted 1:1,000; Cell Signaling Technology), phosphorylated cPLA2 antibody (diluted 1:1,000; Cell Signaling Technology), M2 antibody (diluted 1:2,000; Sigma-Aldrich), and β-arrestin antibody (diluted 1:1,000; BD Biosciences).

T1 sequence (Q8TDS4 whole entry, species assumed): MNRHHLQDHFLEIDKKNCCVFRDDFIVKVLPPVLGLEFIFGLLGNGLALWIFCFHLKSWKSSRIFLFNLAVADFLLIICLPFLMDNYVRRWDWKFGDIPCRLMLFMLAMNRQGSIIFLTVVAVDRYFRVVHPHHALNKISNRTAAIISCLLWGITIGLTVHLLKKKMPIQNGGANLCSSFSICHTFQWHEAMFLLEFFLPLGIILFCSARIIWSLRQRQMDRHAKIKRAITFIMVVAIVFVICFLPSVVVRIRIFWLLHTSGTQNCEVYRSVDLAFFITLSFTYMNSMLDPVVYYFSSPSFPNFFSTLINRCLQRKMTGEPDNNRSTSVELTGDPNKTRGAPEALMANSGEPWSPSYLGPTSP

In the case of `C1Cc2[nH]nc(-c3nn[nH]n3)c2C1` [MK-0354], the cutaneous flushing [1] is given as “do not induce cutaneous flushing” and the “serum FFAs” value [1] is given as “decrease serum FFAs”.
For `COc1cccc(-c2cc(=O)c3ccccc3o2)c1N` [PD98059], the “basal level of phosphorylated cPLA2 after pretreatment” value (cPLA2) was “substantially increased”.
In the case of `O=C(O)c1cccnc1` [nicotinic acid, Nicotinic acid], the “occurrence of cutaneous vasodilation or flushing side effect” value [2] is given as ~80 % of patients, the “tachyphylaxis to cutaneous vasodilation/flushing” value [3] is given as “rapid tachyphylaxis” and the “serum FFAs” value [4] is given as “significant and essentially identical decreases in FFAs”. For the same molecule, the “recruitment of β-arrestin1 to the membrane of Langerhans cells” value (Langerhans cells) was “robust recruitment”, the “release of radiolabeled eicosanoids in β-arrestin1-deficient cells” value (peritoneal macrophages; versus wild type) was “significantly reduced” and the “release of radiolabeled eicosanoids” value (peritoneal macrophages; wild-type and β-arrestin2-deficient macrophages) was “increased”. The “β-arrestin1 translocation in differentiated THP-1 macrophages” value [5] was “led to β-arrestin1 translocation”, the “nicotinic acid-stimulated increase in perfusion in β-arrestin1-deficient mice” value ([6]; versus wild type) was “dramatically decreased” and the “perfusion of the ventral ear” value ([6]; wild-type and β-arrestin2-deficient mice) was “dramatic increase in perfusion”.
With pertussis toxin the “basal level of phosphorylated cPLA2 after pretreatment” value (cPLA2) was “substantially increased”, the “MK-0354-induced cAMP decrease, sensitivity to pertussis toxin” value (GPR109A [7]; agonist MK-0354) was “sensitive” and the “nicotinic acid-induced cAMP decrease, sensitivity to pertussis toxin” value (GPR109A [7]; agonist nicotinic acid) was “sensitive”. The “effect on nicotinic acid-stimulated ERK phosphorylation” value (GPR109A [8]) was “all but eliminated”.
